Source: patent publication US7199115B2, “17α-fluorosteroids, pharmaceutical compositions containing 17α-fluorosteroids and a method of making them” (Schering AG, priority 2004, dated 2007)
Read-outs that look alike come from different tables or passages of the source.

Tests used:
[1] = target: T1, 5α-reductase-Type-2 (Homo sapiens, UniProt P31213); assay: 5α-reductase-Type-2 activity in genital skin homogenates; type: biochemical; conditions: optimum conditions at pH=5.5
T1 construct: Under optimum conditions at pH=5.5 in genital skin homogenates; from tissue; host or cells: genital skin homogenates
T1 sequence (P31213 1-254): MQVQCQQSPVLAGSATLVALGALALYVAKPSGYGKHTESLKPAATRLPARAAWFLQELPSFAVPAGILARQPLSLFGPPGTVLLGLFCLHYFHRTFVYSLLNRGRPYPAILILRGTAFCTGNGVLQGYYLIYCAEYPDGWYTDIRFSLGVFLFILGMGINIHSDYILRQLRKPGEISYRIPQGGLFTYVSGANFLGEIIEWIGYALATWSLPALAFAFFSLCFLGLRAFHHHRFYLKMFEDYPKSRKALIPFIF
Description: Subsequently experimental data for progesterone receptor binding, 5α-reductase-type-2 activity in genital skin homogenates and in vivo data in the case of the exemplary compound of the invention, (E)-17α-fluoro-3-oxo-estra-4-en-17β-carbaldehyde oxime, are reported here.

[2] = system: pregnancy maintenance; assay: Gestagen activity in pregnancy maintenance test; type: in vivo; conditions: mouse
[3] = target: T2, PR-B (Homo sapiens, UniProt P06401); assay: PR-B antagonisms and agonisms; type: cell-based
T2 sequence (P06401 1-933): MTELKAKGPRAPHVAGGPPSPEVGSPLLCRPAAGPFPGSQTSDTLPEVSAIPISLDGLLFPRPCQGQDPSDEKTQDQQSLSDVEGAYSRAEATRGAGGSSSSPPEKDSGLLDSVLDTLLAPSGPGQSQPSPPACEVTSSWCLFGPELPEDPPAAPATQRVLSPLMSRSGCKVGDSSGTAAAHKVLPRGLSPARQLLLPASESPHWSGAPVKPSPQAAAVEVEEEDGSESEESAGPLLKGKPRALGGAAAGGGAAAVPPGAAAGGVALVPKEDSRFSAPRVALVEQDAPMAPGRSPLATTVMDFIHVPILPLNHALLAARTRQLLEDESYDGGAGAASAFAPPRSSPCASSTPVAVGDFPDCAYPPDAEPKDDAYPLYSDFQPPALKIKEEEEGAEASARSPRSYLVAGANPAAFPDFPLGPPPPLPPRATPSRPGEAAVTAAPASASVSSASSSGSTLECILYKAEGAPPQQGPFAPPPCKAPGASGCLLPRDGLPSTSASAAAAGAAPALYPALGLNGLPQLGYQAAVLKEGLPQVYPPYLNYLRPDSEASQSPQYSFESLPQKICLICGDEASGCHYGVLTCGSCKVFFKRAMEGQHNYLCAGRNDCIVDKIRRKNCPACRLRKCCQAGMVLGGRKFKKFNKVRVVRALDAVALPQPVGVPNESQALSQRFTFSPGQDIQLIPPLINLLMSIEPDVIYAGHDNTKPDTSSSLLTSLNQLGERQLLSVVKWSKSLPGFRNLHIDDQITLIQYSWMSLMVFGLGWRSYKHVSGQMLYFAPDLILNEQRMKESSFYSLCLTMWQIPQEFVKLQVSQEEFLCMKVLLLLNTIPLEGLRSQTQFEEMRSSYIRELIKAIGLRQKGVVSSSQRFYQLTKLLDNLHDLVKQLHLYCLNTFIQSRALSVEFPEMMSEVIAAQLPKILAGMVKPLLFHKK

[4] = target: T3, Progesterone Receptor (Oryctolagus cuniculus, UniProt P06186); assay: Binding to progesterone receptor, uterus cytosol, tracer 3H-ORG 2058; conditions: rabbit uterus cytosol, 0–4° C., 18 h, Progesterone=100%
T3 construct: Biological material: Uterus cytosol, rabbit, pressed; from tissue; host or cells: rabbit uterus cytosol
T3 sequence (P06186 1-930): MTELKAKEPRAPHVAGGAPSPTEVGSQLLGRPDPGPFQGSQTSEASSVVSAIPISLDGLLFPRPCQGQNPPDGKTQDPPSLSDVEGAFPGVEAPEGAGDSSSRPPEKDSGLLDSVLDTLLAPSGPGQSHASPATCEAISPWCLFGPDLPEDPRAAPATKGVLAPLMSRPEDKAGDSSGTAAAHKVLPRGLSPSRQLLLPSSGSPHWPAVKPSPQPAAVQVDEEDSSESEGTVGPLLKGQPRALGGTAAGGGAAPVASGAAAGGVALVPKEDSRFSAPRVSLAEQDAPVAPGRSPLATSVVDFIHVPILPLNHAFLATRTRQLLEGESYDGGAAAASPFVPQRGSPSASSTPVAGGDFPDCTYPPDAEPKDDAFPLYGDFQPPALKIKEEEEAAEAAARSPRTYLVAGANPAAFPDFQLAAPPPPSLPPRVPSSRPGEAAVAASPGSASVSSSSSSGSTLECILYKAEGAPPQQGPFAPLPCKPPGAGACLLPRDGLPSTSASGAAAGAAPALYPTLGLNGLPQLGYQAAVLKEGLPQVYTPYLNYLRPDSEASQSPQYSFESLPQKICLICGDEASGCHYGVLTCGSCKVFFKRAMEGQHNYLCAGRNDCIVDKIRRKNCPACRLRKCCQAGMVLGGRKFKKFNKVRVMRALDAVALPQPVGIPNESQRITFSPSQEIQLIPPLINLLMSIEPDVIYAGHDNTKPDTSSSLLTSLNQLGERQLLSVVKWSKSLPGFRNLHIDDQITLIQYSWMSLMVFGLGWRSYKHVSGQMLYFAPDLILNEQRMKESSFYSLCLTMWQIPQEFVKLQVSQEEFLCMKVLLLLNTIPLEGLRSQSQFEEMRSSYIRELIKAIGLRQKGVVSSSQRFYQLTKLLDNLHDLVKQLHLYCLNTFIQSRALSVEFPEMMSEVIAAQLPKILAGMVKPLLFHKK
Description: Binding of Compound I to Progesterone Receptor

Compound	IC50 [1]	Rate of Maintained Gravidity ([2]; dosage 0.003 Mg/animal/day)	Rate of Maintained Gravidity ([2]; dosage 0.03 Mg/animal/day)	Rate of Maintained Gravidity ([2]; dosage 0.3 Mg/animal/day)	IC50 ([3]; PR-B agonism, read-out: Agonism IC50)	IC50 ([3]; PR-B antagonism, read-out: Antagonism IC50)	Relative Binding affinity RBA [4]
C[C@]12CCC3C4CCC(=O)C=C4CCC3C1CC[C@]2(F)/C=N/O (stereo partly drawn) [Compound 7, (E)-17α-fluoro-3-oxo-estra-4-en-17β-carbaldehyde oxime]	245 nM	0/3	2/2	3/3	0.25 nM	0.339 nM	
CC(=O)[C@H]1CC[C@H]2[C@@H]3CCC4=CC(=O)CC[C@]4(C)[C@H]3CC[C@]12C [Progesterone]							100%
